Results as given in paper PMC8569681, “New Pyrimidine and Pyridine Derivatives as Multitarget Cholinesterase Inhibitors: Design, Synthesis, and In Vitro and In Cellulo Evaluation” (ACS Chemical Neuroscience, 2021).

These molecules were tested against T1, equine BChE (eqBChE) (Equus caballus, UniProt P81908) (assay: Percent inhibition of eqBChE, Ellman's spectrophotometric method). Settings: 900 nM; supplement csv.
T1 construct: purchased Sigma-Aldrich (Milan, Italy)
T1 sequence (P81908 whole entry): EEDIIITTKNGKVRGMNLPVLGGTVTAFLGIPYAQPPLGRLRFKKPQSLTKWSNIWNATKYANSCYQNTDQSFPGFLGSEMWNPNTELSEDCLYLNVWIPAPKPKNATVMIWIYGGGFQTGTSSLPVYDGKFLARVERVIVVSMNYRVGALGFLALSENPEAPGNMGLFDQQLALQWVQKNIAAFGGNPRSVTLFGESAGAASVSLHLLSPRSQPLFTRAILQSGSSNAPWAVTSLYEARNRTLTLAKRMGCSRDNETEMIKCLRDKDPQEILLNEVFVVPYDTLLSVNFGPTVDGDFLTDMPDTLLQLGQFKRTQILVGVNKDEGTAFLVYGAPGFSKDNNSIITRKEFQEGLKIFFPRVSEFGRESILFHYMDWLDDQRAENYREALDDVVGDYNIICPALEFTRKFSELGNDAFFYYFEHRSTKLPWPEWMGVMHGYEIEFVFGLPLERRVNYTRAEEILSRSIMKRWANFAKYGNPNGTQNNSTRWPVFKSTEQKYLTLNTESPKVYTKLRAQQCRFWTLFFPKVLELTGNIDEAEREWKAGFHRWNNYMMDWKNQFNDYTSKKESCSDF
Type: biochemical
Description: On the synthesized compounds, enzymatic inhibition studies were carried out toward Electrophorus electricus AChE (EeAChE) and equine BChE (eqBChE) according to Ellman’s spectrophotometric method.[25]
(§1) All other chemical and biological reagents and solvents used were of the highest analytical, commercially available grade. The water, utilized for the preparation of the phosphate buffer and of the compound solutions, was distilled and filtered on nylon membrane filters with a 0.2 μm pore size with the Millipore Filtration apparatus before each use. Micropipettes Labmate (BRAND Dig. 10–100 μL; Dig. 100–1000 μL; Dig. 0.1–2 μL) and Transferpette (HIGH TECH LAB LM200: 20–200 μL; LM5000: 1000–5000 μL) were used to collect the samples. The assays were carried out by a double beam UV–vis Lambda 40 Perkin Elmer spectrophotometer using optical polystyrene cuvettes (10 × 10 × 45 mm, 340–800 nm optical transparency); each measure was repeated at least in triplicate. […] The spectrophotometric method of Ellman[25] with minor modifications was used to evaluate the inhibition of ChEs. […] EeAChE and eqBChE were periodically tested to evaluate the effective enzymatic activity.
(§2) For all the synthesized compounds, the percentages of inhibition toward AChE of Electrophorus electricus (EeAChE) and equine BChE (eqBChE) were evaluated.
(§3) Three milliliters of a solution in 0.1 M phosphate buffer (pH = 7.4) containing DTNB (0.25 mM) and EeAChE (0.083 UmL^–1) or eqBChE (0.083 UmL^–1) was placed in a polystyrene cuvette of 1.0 cm path length; 1 μL of a solution in DMSO of the tested compound was added to obtain a cuvette concentration range of 9–0.09 μM. With this solution, the blank was made. […] Each experiment was repeated at least in triplicate.
In the case of `COc1cc(CNCCCCCCNc2ncccn2)ccc1O` [Compound 18, 2-Methoxy-4-(((6-(pyrimidin-2-ylamino)hexyl)amino)methyl)phenol], the “% inhibition vs eqBChE ± SD (900 uM)” value is reported as 44.2 ± 6.4%.
For `c1cnc(NCCCCCCNCc2c[nH]c3ccccc23)nc1` [Compound 22, N^1-((1H-Indol-3-yl)methyl)-N^6-(pyrimidin-2-yl)hexane-1,6-diamine], the “% inhibition vs eqBChE ± SD (900 uM)” value was 65.1 ± 3.8%.

Same assay, conditions: [I] 900 nM; 0.0833 U/mL enzyme, 100 μM acetylthiocholine; read-out: % inhibition vs eqBChE ± SD
Work on `COc1cc(CNCCCCCCNc2ncccn2)ccc1O` [Compound 18, 2-Methoxy-4-(((6-(pyrimidin-2-ylamino)hexyl)amino)methyl)phenol] yielded an inhibition at 0.9 µM of 44%.
`c1cnc(NCCCCCCNCc2c[nH]c3ccccc23)nc1` [Compound 22, N^1-((1H-Indol-3-yl)methyl)-N^6-(pyrimidin-2-yl)hexane-1,6-diamine] gave an inhibition at 0.9 µM of 65%.

Same assay, conditions: [I] 9 μM; 0.0833 U/mL enzyme, 100 μM acetylthiocholine
In the case of `c1cnc(NCCCCCCNCc2c[nH]c3ccccc23)nc1` [Compound 22, N^1-((1H-Indol-3-yl)methyl)-N^6-(pyrimidin-2-yl)hexane-1,6-diamine], the “% inhibition vs eqBChE ± SD” value is reported as 94.0 ± 0.7%.

Same assay, conditions: [I] 9 μM; 0.0833 U/mL enzyme, 100 μM acetylthiocholine; read-out: % inhibition vs eqBChE ± SD
Work on `COc1cc(CNCCCCCCNc2ncccn2)ccc1O` [Compound 18, 2-Methoxy-4-(((6-(pyrimidin-2-ylamino)hexyl)amino)methyl)phenol] yielded an inhibition at 9 µM of 84%.
For `c1cnc(NCCCCCCNCc2c[nH]c3ccccc23)nc1` [Compound 22, N^1-((1H-Indol-3-yl)methyl)-N^6-(pyrimidin-2-yl)hexane-1,6-diamine], the inhibition at 9 µM was 94%.

Same assay, conditions: read-out: % inhibition vs eqBChE ± SD (9 uM), 9 uM; supplement csv
`COc1cc(CNCCCCCCNc2ncccn2)ccc1O` [Compound 18, 2-Methoxy-4-(((6-(pyrimidin-2-ylamino)hexyl)amino)methyl)phenol] showed an inhibition at 9 µM of 84.4 ± 0.8%.
`c1cnc(NCCCCCCNCc2c[nH]c3ccccc23)nc1` [Compound 22, N^1-((1H-Indol-3-yl)methyl)-N^6-(pyrimidin-2-yl)hexane-1,6-diamine] was tested, and the inhibition at 9 µM was 94 ± 0.7%.

What follows are molecules tested against T2, Aβ42 peptide (Homo sapiens, UniProt P05067) (assay: Inhibition of Aβ42 aggregation in intact E. coli cells, thioflavin-S). Settings: [I] = 100 μM.
T2 construct: expressed in transfected cells; host or cells: E. coli BL21 (DE3), pET28a
T2 sequence (P05067 672-713 limits assumed): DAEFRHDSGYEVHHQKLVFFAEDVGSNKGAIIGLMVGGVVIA
Type: cell-based, Escherichia coli
Description: The anti-aggregating effect of the tested compounds was monitored by a cell-based assay in intact Escherichia coli cells that overexpress either the Aβ42 peptide or tau protein, which upon overexpression form insoluble inclusion bodies that were stained with thioflavin-S, an amyloid specific dye.[36] The percentages of inhibition toward Aβ42 and tau aggregation were determined at an inhibitor concentration of 100 μM, and the obtained results are reported in Table 7.
E. coli competent cells BL21 (DE3) were transformed with the pET28a vector (Novagen, Inc., Madison, WI, USA) carrying the DNA sequence of Aβ42. Because of the addition of the initiation codon ATG in front of both genes, the overexpressed peptide contains an additional methionine residue at its N terminus. For overnight culture preparation, an amount of 10 mL of the M9 minimal medium containing 50 μg·mL^–1 of kanamycin was inoculated with a colony of BL21 (DE3) bearing the plasmid to be expressed at 37 °C. For expression of the Aβ42 peptide, the required volume of overnight culture to obtain 1:500 dilution was added into the fresh M9 minimal medium containing 50 μg·mL^–1 of kanamycin and 250 μM Th-S. The bacterial culture was grown at 37 °C and 250 rpm. When the cell density reached OD600 = 0.6, an amount of 980 μL of culture was transferred into Eppendorf tubes of 1.5 mL with 10 μL of each compound to be tested in DMSO and 10 μL of isopropyl 1-thio-β-D-galactopyranoside (IPTG) at 100 mM. The final concentration of the drug was fixed at 100 μM. The samples were grown overnight at 37 °C and 1400 rpm using a ThermoMixer (Eppendorf, Hamburg, Germany). As negative control (maximal amyloid presence), the same amount of DMSO without the drug was added in the sample. In parallel, non-induced samples (in the absence of IPTG) were also prepared and used as positive controls (non-amyloid presence). In addition, these samples were used to assess the potential intrinsic toxicity of the compounds and to confirm the correct bacterial growth.
Th-S (T1892) and other chemical reagents were purchased from Sigma (St. Louis, MO). The Th-S stock solution ([…]) was prepared in double-distilled water purified through a Milli-Q system (Millipore, USA). Th-S fluorescence and absorbance were tracked using a DTX 800 plate reader Multimode Detector equipped with a Multimode Analysis Software (Beckman-Coulter, USA). Filters of 430/35 and 485/20 nm were used for the excitation and emission wavelengths, respectively. Filters of 535/25 nm were also used for the absorbance determination. To normalize the Th-S fluorescence as a function of the bacterial concentration, OD600 was obtained using a Shimadzu UV-2401 PC UV–vis spectrophotometer (Shimadzu, Japan). Note that the fluorescence normalization was carried out considering as 100% the Th-S fluorescence of the bacterial cells expressing the peptide or protein in the absence of drug and 0% the Th-S fluorescence of the bacterial cells not expressing the peptide or protein. A minimum of five independent assays (with three replicates for assay) was performed for each tested compound. More assays were performed to obtain a SEM < 5% with a maximum of 10 independent assays.
With `COc1cc(CNCCCCCCNc2ncccn2)ccc1O` [Compound 18, 2-Methoxy-4-(((6-(pyrimidin-2-ylamino)hexyl)amino)methyl)phenol] the inhibition at 100 µM was 1.7%.
Molecule `c1cnc(NCCCCCCNCc2c[nH]c3ccccc23)nc1` [Compound 22, N^1-((1H-Indol-3-yl)methyl)-N^6-(pyrimidin-2-yl)hexane-1,6-diamine] has an inhibition at 100 µM of 9.7%.

The molecules below were run against T3, Electrophorus electricus AChE (EeAChE) (Electrophorus electricus, UniProt O42275) (assay: Percent inhibition of EeAChE, Ellman's spectrophotometric method). Settings: read-out: % inhibition vs EeAChE ± SD (9 uM), 9 uM; supplement csv.
T3 construct: purchased Sigma-Aldrich (Milan, Italy)
T3 sequence (O42275 24-633): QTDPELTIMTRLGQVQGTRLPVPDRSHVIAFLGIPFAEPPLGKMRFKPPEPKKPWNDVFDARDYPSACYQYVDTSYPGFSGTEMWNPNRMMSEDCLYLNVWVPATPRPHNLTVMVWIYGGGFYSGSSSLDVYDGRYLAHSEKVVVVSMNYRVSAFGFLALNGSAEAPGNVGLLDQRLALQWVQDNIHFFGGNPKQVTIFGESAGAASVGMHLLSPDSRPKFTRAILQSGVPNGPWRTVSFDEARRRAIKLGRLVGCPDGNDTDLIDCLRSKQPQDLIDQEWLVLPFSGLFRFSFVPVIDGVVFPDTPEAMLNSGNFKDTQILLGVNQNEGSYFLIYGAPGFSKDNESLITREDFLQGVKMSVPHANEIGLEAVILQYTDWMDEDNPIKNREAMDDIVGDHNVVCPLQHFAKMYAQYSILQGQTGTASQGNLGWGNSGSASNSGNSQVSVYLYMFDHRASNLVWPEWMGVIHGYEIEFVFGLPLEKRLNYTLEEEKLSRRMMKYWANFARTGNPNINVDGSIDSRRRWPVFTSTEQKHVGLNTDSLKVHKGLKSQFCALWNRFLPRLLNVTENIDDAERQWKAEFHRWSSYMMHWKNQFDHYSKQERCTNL
Type: biochemical
Description: as §1, §2
as §3, with “solution in DMSO of the tested compound was added to obtain a cuvette concentration range of 9–0.09 μM.” left out
With `COc1cc(CNCCCCCCNc2ncccn2)ccc1O` [Compound 18, 2-Methoxy-4-(((6-(pyrimidin-2-ylamino)hexyl)amino)methyl)phenol] the inhibition at 9 µM was 59.5 ± 3.6%.
`c1cnc(NCCCCCCNCc2c[nH]c3ccccc23)nc1` [Compound 22, N^1-((1H-Indol-3-yl)methyl)-N^6-(pyrimidin-2-yl)hexane-1,6-diamine] was tested, and the inhibition at 9 µM was 69.2 ± 1.4%.

Same assay, conditions: read-out: % inhibition vs EeAChE ± SD (900 uM), 900 uM; supplement csv
Molecule `COc1cc(CNCCCCCCNc2ncccn2)ccc1O` [Compound 18, 2-Methoxy-4-(((6-(pyrimidin-2-ylamino)hexyl)amino)methyl)phenol] has an inhibition at 900 µM of 14.7 ± 0.5%.
`c1cnc(NCCCCCCNCc2c[nH]c3ccccc23)nc1` [Compound 22, N^1-((1H-Indol-3-yl)methyl)-N^6-(pyrimidin-2-yl)hexane-1,6-diamine] showed an inhibition at 900 µM of 16.4 ± 1.9%.

Same assay, conditions: read-out: % inhibition vs EeAChE ± SD, [I] 900 nM; 0.0833 U/mL enzyme, 100 μM acetylthiocholine
Molecule `COc1cc(CNCCCCCCNc2ncccn2)ccc1O` [Compound 18, 2-Methoxy-4-(((6-(pyrimidin-2-ylamino)hexyl)amino)methyl)phenol] has an inhibition at 0.9 µM of 14.7 ± 0.5%.
`c1cnc(NCCCCCCNCc2c[nH]c3ccccc23)nc1` [Compound 22, N^1-((1H-Indol-3-yl)methyl)-N^6-(pyrimidin-2-yl)hexane-1,6-diamine] gave an inhibition at 0.9 µM of 16.4 ± 1.9%.

Same assay, conditions: read-out: % inhibition vs EeAChE ± SD, [I] 9 μM; 0.0833 U/mL enzyme, 100 μM acetylthiocholine
`COc1cc(CNCCCCCCNc2ncccn2)ccc1O` [Compound 18, 2-Methoxy-4-(((6-(pyrimidin-2-ylamino)hexyl)amino)methyl)phenol] gave an inhibition at 9 µM of 60 to 70%.
For `c1cnc(NCCCCCCNCc2c[nH]c3ccccc23)nc1` [Compound 22, N^1-((1H-Indol-3-yl)methyl)-N^6-(pyrimidin-2-yl)hexane-1,6-diamine], the inhibition at 9 µM was 60 to 70%.
